Measurements published in ChEMBL document CHEMBL3526076, “Species-dependent and receptor-selective action of bilobalide on the function of constitutive androstane receptor and pregnane X receptor” (Drug Metab Dispos, 2012).

Tests used:
[1] = system: PXR mRNA; test: Effect on PXR mRNA expression in rat hepatocytes at 10 uM by RT-PCR analysis relative to control; assay type: ADME, cell-based, Hepatocyte; conditions: read-out: FC
[2] = target: T1, Nuclear receptor subfamily 1 group I member 3 (Homo sapiens, UniProt Q14994); test: Activation of human CAR expressed in rat hepatocytes coexpressing CYP2B1 at 100 uM after 24 hrs by dual luciferase reporter gene assay; assay type: ADME, cell-based, Hepatocyte
T1 sequence (Q14994 whole entry): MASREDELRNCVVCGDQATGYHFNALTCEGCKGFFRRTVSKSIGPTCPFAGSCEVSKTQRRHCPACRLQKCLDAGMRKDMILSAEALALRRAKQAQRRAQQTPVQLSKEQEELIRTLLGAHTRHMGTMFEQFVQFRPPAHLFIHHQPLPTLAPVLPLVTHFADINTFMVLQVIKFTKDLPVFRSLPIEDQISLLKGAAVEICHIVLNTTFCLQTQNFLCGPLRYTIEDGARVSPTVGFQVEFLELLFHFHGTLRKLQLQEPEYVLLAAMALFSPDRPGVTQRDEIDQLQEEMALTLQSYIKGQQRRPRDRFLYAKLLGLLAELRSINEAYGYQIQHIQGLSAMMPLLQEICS

[3] = system: CAR mRNA; test: Effect on CAR mRNA expression in human hepatocytes at 50 uM by RT-PCR analysis relative to control; assay type: ADME, cell-based, Hepatocyte; conditions: read-out: FC
[4] = target: T2, Nuclear receptor subfamily 1 group I member 3 (Rattus norvegicus, UniProt Q9QUS1); test: Activation of CAR in rat hepatocytes assessed as increase in CYP2B-mediated benzyloxyresorufin O-dealkylation at 30 uM after 24 hrs by spectrofluorometric analysis relative to phenobarbital; assay type: ADME, cell-based, Hepatocyte
T2 sequence (Q9QUS1 whole entry): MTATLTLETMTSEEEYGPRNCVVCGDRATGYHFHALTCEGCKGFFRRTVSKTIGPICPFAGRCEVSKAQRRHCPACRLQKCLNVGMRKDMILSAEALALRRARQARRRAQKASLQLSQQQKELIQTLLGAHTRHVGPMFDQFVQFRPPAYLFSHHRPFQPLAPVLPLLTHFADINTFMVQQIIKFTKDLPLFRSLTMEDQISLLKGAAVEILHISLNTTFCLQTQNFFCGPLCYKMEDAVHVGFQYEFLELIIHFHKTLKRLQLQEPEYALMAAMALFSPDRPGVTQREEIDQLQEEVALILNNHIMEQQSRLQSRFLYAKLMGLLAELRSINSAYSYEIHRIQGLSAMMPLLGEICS

[5] = target: T2, Nuclear receptor subfamily 1 group I member 3; test: Activation of CAR in rat hepatocytes assessed as upregulation of CYP2B1 mRNA expression at 30 uM after 24 hrs by RT-PCR analysis relative to phenobarbital; assay type: ADME, cell-based, Hepatocyte
[6] = target: T3, Nuclear receptor subfamily 1 group I member 2 (Homo sapiens, UniProt O75469); test: Activation of human PXR expressed in rat hepatocytes coexpressing CYP3A4 at 100 uM after 24 hrs by dual luciferase reporter gene assay; assay type: ADME, cell-based, Hepatocyte
T3 sequence (O75469 whole entry): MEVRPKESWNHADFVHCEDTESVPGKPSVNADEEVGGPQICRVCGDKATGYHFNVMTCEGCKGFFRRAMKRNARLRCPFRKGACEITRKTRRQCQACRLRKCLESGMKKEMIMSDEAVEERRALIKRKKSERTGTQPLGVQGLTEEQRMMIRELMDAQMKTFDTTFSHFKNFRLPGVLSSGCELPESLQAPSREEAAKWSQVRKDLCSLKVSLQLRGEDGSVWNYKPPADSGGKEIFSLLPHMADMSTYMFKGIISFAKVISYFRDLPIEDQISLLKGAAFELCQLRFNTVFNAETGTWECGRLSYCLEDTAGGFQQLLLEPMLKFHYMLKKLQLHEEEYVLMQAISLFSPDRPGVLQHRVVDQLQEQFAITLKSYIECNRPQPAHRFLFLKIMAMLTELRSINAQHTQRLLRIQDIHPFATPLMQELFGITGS

[7] = target: T2, Nuclear receptor subfamily 1 group I member 3; test: Activation of rat CAR expressed in rat hepatocytes coexpressing CYP2B1 at 100 uM after 24 hrs by dual luciferase reporter gene assay relative to control; assay type: ADME, cell-based, Hepatocyte; conditions: hepatocytes, 24 h, 100 µM
[8] = target: T4, Nuclear receptor subfamily 1 group I member 2 (Rattus norvegicus, UniProt Q9R1A7); test: Antagonist activity at rat PXR expressed in human HepG2 cells coexpressing CYP3A4 assessed as inhibition of PCN-induced receptor activation up to 100 uM after 24 hrs by dual luciferase reporter gene assay; assay type: ADME, cell-based; conditions: hepg2, 24 h
T4 sequence (Q9R1A7 whole entry): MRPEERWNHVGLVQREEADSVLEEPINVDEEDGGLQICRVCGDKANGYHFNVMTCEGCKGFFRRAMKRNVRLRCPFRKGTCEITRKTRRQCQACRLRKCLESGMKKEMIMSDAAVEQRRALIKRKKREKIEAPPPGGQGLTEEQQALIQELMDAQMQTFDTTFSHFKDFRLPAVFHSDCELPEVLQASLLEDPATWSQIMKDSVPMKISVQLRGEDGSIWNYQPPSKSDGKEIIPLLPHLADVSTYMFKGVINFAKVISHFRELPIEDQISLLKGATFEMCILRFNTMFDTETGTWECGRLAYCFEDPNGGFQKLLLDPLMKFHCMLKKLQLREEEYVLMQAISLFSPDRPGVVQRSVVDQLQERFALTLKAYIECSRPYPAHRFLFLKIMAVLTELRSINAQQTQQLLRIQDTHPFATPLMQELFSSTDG

[9] = target: T1, Nuclear receptor subfamily 1 group I member 3; test: Activation of CAR in human Hu1043 hepatocytes assessed as increase in CYP2B6-mediated bupropion hydroxylation at 10 to 60 uM after 24 hrs by LC-MS analysis; assay type: ADME, cell-based, Hepatocyte

CC(C)(C)[C@]1(O)C[C@@H]2OC(=O)C[C@@]23C(=O)O[C@@H]2OC(=O)[C@H](O)[C@]213
fold induction at 10 µM [1]: 1.4 | Activity [2]: Not Active | fold induction at 50 µM [3]: 1.4 | Activity [4]: 83% | Activity [5]: 37% | Activity [6]: Not Active | Activity [7]: Active | inhibition (INH) [8]: Not Active | Activity [9]: Not Active
